Results on 1 molecule are retold here after patent US4315009A, “Antisecretory guanidine derivatives and pharmaceutical compositions containing them” (Imperial Chemical Industries Limited, priority 1978, dated 1982).

The nature of this data set: overt toxicity in mice after intraperitoneal dosing. It is filed as in vivo. The conditions noted are these: intraperitoneally, 50 mg./kg.

Regarding `C/N=C(\NC#N)Nc1cccc(-c2csc(N=C(N)N)n2)c1` [Example 2, 2-guanidino-4-[3-(2-cyano-3-methylguanidino)phenyl]thiazole], the overt toxicity entry is on record as “no overt toxicity”.
